Several values for one entry are separate records, joined by “and”; a condition that tells them apart may be missing. Identical values can stand only once. Inconclusive results are not listed. The calls were made as follows: active = survival T/C of 150% or more; inactive = T/C below 125% in these data. *1 amine or outer side, *2 acyl side, *3 side chain or, on linkers, in order; H or OH if unused. Where a SMILES comes first, the peptide text is derived from it. Bridges are numbered along the chain shown (N, C = ends). Roman numbers before positions name the chains, in order. [ ]: non-standard residue; d: D form. Actinocin(9to1) = Cc1c2oc3c(C)ccc(C(=O)[*:1])c3nc-2c(C(=O)[*:2])c(N)c1=O; aThr = C[C@H](O)[C@H](N)C(=O)O; NMeV = CN[C@H](C(=O)O)C(C)C; Sar = CNCC(=O)O
System: Madison 109 lung carcinoma i.m., mice, median survival
Test: NCI In Vivo Anticancer Drug Screen. Data for tumor model Madison 109 Lung Carcinoma (intramuscular) in unknown mice
Conditions: endpoint: median survival time, higher = longer survival
Experimental: The antitumor activity of compounds was measured in mice bearing transplantable tumors. Survival or tumor size were measured and the results are expressed as the measurement made in the treated group (T) divided by the measurement made in the vehicle treated control group (C). The tumor model used in this assay is Madison 109 Lung Carcinoma (intramuscular) in unknown mice

[1] = dose: 1.0 mg/kg/injection, schedule: Q01DX009 (ip), vehicle: saline

Measured: T/C

O=C(O)CCCc1ccc(N(CCCl)CCCl)cc1
inactive: dose: 1.5 mg/kg/injection, schedule: Q01DX009 (ip), vehicle: saline 105 % of control

CC1OC(O[C@H]2/C=C/C=C/C=C/C=C/C=C/C=C/C=C/[C@H](C)[C@@H](O)[C@@H](C)[C@H](C)OC(=O)C[C@H](O)C[C@H](O)CC[C@@H](O)[C@H](O)C[C@H](O)C[C@]3(O)C[C@H](O)[C@@H](C(=O)O)[C@H](C2)O3)C(O)C(N)C1O (stereo partly drawn)
inactive: dose: 6.25 mg/kg/injection, schedule: Q01DX009 (ip), vehicle: saline with Tween-80 108 % of control | dose: 12.5 mg/kg/injection, schedule: Q01DX009 (ip), vehicle: saline with Tween-80 118 % of control | dose: 25.0 mg/kg/injection, schedule: Q01DX009 (ip), vehicle: saline with Tween-80 88 % of control | dose: 50.0 mg/kg/injection, schedule: Q01DX009 (ip), vehicle: saline with Tween-80 110 % of control | dose: 100.0 mg/kg/injection, schedule: Q01DX009 (ip), vehicle: saline with Tween-80 93 % of control

COc1cccc2c1C(=O)c1c(O)c3c(c(O)c1C2=O)C[C@@](O)(C(C)=O)C[C@@H]3OC1CC(N)C(O)C(C)O1 (stereo partly drawn)
inactive: dose: 0.25 mg/kg/injection, schedule: Q04DX003 (ip), vehicle: water 108 % of control | dose: 0.5 mg/kg/injection, schedule: Q04DX003 (ip), vehicle: water 120 % of control | dose: 1.0 mg/kg/injection, schedule: Q01DX009 (ip), vehicle: water 111 % of control | dose: 1.0 mg/kg/injection, schedule: Q04DX003 (ip), vehicle: water 94 % of control | dose: 1.5 mg/kg/injection, schedule: Q01DX009 (ip), vehicle: water 55 % of control | dose: 1.5 mg/kg/injection, schedule: Q04DX003 (ip), vehicle: water 122 % of control | dose: 2.5 mg/kg/injection, schedule: Q01DX009 (ip), vehicle: water 32 % of control

CN(C)/N=N/c1nc[nH]c1C(N)=O
inactive: dose: 200.0 mg/kg/injection, schedule: Q01DX009 (ip), vehicle: Klucel (hydroxypropylcellulose) (HPC) 121 % of control

CC1CCC(NC(=O)N(CCCl)N=O)CC1 (stereo not drawn)
inactive: dose: 0.5 mg/kg/injection, schedule: Q01DX009 (ip), vehicle: saline 100 % of control | [1] 93 % of control | dose: 2.0 mg/kg/injection, schedule: Q01DX001 (ip), vehicle: saline 88 % of control | dose: 2.0 mg/kg/injection, schedule: Q01DX009 (ip), vehicle: saline 95 % of control | dose: 4.0 mg/kg/injection, schedule: Q01DX001 (ip), vehicle: saline 90 % of control | dose: 4.0 mg/kg/injection, schedule: Q01DX009 (ip), vehicle: saline 107 % of control | dose: 8.0 mg/kg/injection, schedule: Q01DX001 (ip), vehicle: saline 93 % of control | dose: 8.0 mg/kg/injection, schedule: Q01DX009 (ip), vehicle: saline 115 % of control | dose: 16.0 mg/kg/injection, schedule: Q01DX001 (ip), vehicle: saline 100 % of control | dose: 32.0 mg/kg/injection, schedule: Q01DX001 (ip), vehicle: saline 106 % of control

COc1cccc2c1C(=O)c1c(O)c3c(c(O)c1C2=O)CC(O)(C(=O)CO)CC3OC1CC(N)C(O)C(C)O1 (stereo not drawn)
inactive: dose: 5.5 mg/kg/injection, schedule: Q01DX005 (ip), vehicle: water 100 % of control | dose: 52.5 mg/kg/injection, schedule: Q01DX005 (ip), vehicle: water 102 % of control

COc1cc2c(c(OC)c1OC)-c1ccc(OC)c(=O)cc1[C@@H](NC(C)=O)CC2
inactive: dose: 0.06 mg/kg/injection, schedule: Q01DX009 (ip), vehicle: water 100 % of control | dose: 0.12 mg/kg/injection, schedule: Q01DX009 (ip), vehicle: water 90 % of control | dose: 0.24 mg/kg/injection, schedule: Q01DX009 (ip), vehicle: water 100 % of control

CO[C@H](C(=O)[C@@H](O)[C@@H](C)O)[C@@H]1Cc2cc3cc(OC4CC(OC5CC(O)C(O)C(C)O5)C(O)C(C)O4)c(C)c(O)c3c(O)c2C(=O)[C@H]1OC1CC(OC2CC(OC3CC(C)(O)C(O)C(C)O3)C(O)C(C)O2)C(O)C(C)O1 (stereo partly drawn)
inactive: dose: 0.05 mg/kg/injection, schedule: Q01DX009 (ip), vehicle: water 100 % of control | dose: 0.1 mg/kg/injection, schedule: Q01DX009 (ip), vehicle: water 100 % of control | dose: 0.2 mg/kg/injection, schedule: Q01DX009 (ip), vehicle: water 115 % of control | dose: 0.3 mg/kg/injection, schedule: Q01DX009 (ip), vehicle: water 86 % of control and 110 % of control | dose: 0.4 mg/kg/injection, schedule: Q01DX009 (ip), vehicle: water 108 % of control and 115 % of control | dose: 0.5 mg/kg/injection, schedule: Q01DX009 (ip), vehicle: water 103 % of control

CCN(CC)CCOc1ccc2c(c1)C(=O)c1cc(OCCN(CC)CC)ccc1-2
inactive: dose: 25.0 mg/kg/injection, schedule: Q04DX009 (ip), vehicle: Klucel (hydroxypropylcellulose) (HPC) 111 % of control | dose: 50.0 mg/kg/injection, schedule: Q04DX009 (ip), vehicle: Klucel (hydroxypropylcellulose) (HPC) 114 % of control | dose: 75.0 mg/kg/injection, schedule: Q04DX009 (ip), vehicle: Klucel (hydroxypropylcellulose) (HPC) 102 % of control

N[C@@H](Cc1ccc(N(CCCl)CCCl)cc1)C(=O)O
inactive: dose: 0.2 mg/kg/injection, schedule: Q01DX009 (ip), vehicle: saline 102 % of control | dose: 0.4 mg/kg/injection, schedule: Q01DX009 (ip), vehicle: saline 100 % of control | dose: 0.6 mg/kg/injection, schedule: Q01DX009 (ip), vehicle: saline 100 % of control | dose: 0.8 mg/kg/injection, schedule: Q01DX009 (ip), vehicle: saline 111 % of control | [1] 105 % of control

Cc1c2oc3c(C)ccc(C(=O)N[C@@H]4C(=O)N[C@H](C(C)C)C(=O)N5CCC[C@H]5C(=O)N(C)CC(=O)N(C)[C@@H](C(C)C)C(=O)O[C@H]4C)c3nc-2c(C(=O)N[C@@H]2C(=O)N[C@H](C(C)C)C(=O)N3CCC[C@H]3C(=O)N(C)CC(=O)N(C)[C@@H](C(C)C)C(=O)O[C@H]2C)c(N)c1=O (I: [aThr][dV]P[Sar][NMeV] / II: [aThr][dV]P[Sar][NMeV]; ester I:1-I:C, II:1-II:C; linker I:N-II:N via Actinocin(9to1))
inactive: dose: 0.04 mg/kg/injection, schedule: Q02DX009 (ip), vehicle: water 100 % of control | dose: 0.05 mg/kg/injection, schedule: Q02DX009 (ip), vehicle: water 108 % of control | dose: 0.05 mg/kg/injection, schedule: Q03DX009 (ip), vehicle: water 110 % of control | dose: 0.05 mg/kg/injection, schedule: Q04DX009 (ip), vehicle: water 106 % of control | dose: 0.06 mg/kg/injection, schedule: Q02DX009 (ip), vehicle: water 100 % of control | dose: 0.08 mg/kg/injection, schedule: Q02DX009 (ip), vehicle: water 121 % of control | dose: 0.08 mg/kg/injection, schedule: Q04DX009 (ip), vehicle: water 110 % of control | dose: 0.1 mg/kg/injection, schedule: Q01DX001 (ip), vehicle: water 112 % of control | dose: 0.2 mg/kg/injection, schedule: Q01DX001 (ip), vehicle: water 110 % of control | dose: 0.4 mg/kg/injection, schedule: Q01DX001 (ip), vehicle: water 110 % of control

— PubChem BioAssay AID300 (DTP/NCI, 2004)
